Molecules are shown by their SMILES.

Experimental findings from US20200101068A1, “Heteroaryl Derivatives as PARP Inhibitors” (Lupin Limited, priority 2015, published 2020) are described below.

T1 sequence (P09874 whole entry): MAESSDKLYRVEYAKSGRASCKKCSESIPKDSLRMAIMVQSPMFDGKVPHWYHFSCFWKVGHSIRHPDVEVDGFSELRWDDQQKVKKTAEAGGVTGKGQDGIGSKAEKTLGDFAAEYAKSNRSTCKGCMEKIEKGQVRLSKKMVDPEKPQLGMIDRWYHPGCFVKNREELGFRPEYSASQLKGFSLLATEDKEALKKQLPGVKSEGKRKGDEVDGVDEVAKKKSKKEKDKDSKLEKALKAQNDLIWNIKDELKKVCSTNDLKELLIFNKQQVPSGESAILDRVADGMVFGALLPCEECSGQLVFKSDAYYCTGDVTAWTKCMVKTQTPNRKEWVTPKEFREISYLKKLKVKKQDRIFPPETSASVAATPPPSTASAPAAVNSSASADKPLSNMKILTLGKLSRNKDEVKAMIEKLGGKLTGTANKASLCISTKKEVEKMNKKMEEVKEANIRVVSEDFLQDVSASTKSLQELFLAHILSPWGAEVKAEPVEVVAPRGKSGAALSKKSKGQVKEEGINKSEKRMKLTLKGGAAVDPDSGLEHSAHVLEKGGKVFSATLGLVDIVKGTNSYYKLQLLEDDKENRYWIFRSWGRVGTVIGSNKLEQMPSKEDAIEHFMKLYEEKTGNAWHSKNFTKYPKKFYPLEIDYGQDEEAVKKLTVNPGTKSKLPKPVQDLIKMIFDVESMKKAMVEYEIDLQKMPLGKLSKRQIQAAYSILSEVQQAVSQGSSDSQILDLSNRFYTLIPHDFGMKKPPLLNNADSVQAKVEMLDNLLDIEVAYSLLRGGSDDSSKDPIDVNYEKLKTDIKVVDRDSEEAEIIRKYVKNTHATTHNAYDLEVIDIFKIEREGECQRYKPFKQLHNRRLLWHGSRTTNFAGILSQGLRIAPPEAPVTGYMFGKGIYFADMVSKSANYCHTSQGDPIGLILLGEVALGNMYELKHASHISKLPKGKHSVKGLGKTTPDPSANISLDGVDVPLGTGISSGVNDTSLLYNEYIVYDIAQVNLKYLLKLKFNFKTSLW

This assay concerns the target T1, PARP1 (Homo sapiens, UniProt P09874).
T1 construct: purchased BPS Bioscience
Nature of the assay: PARP1 biochemical assay (BPS Bioscience kit, chemiluminescent). The following applies: histone-coated plate, biotinylated NAD+, 60 min at 25° C., luminescence; read-out: PARP 1 inhibition IC50. As to the method: Example 16: PARP1 Biochemical Assay
The assay was performed using BPS Bioscience kit. The 96-well strip plate was coated with 50 μl of histone mixture and incubated at 4° C. overnight. The next day, the wells were blocked by adding 100 μl of blocking buffer. The plate was washed and 25 μl of appropriate concentration of PARP1 (25-75 ng/well) was added in all of the Test and Positive control wells. In the Negative control wells, the enzyme was replaced with 25 μl of water. 5 μl each of 10× PARP assay buffer and activated DNA was added in all the wells (Test, Positive and Negative control wells). 10× concentration of the test compounds were prepared and 5 μl test compounds were added to the respective wells. The reaction volume was made up to 45 μl by adding water to all of the wells. 5 μl of 10× PARP assay mixture containing biotinilated NAD^+ was added in each well and the plate was incubated at ambient temperature (25° C.) for 60 min. After washing the plate 50 μl of Streptavidin-HRP was added in each well, the plate was incubated at RT for 30 min. The plate was washed and the luminescence was read in PHERAStar plate reader after adding 100 μl of chemiluminescent substrate.
PARP inhibition was calculated using the following formula:
% PARP inhibition=100−[(RLU test compound treated sample−RLU negative control)/(RLU Positive control−RLU negative control)×100]
IC50 values were calculated by plotting % inhibition against the respective concentrations of test compounds using GraphPad Prism 5.
`CCOC(=O)c1ccc(N2CCN([C@H]3C=C(c4cc5ncccc5c(=O)[nH]4)CC3)CC2)cc1` [Compound 20, Ethyl (R)-4-(4-(3-(5-oxo-5,6-dihydro-1,6-naphthyridin-7-yl)cyclopent-2-en-1-yl)piperazin-1-yl)benzoate]: the concentration for half-maximal inhibition (IC50) (as a rule, the point on the concentration scale where inhibition reaches its midpoint) was 0.5 to 5 nM. Next, `Cc1ccccc1N1CCN([C@H]2C=C(c3cc4ncccc4c(=O)[nH]3)CC2)CC1` [Compound 3, (R)-7-(3-(4-(o-tolyl)piperazin-1-yl)cyclopent-1-en-1-yl)-1,6-naphthyridin-5(6H)-one]: 0.5 to 5 nM; `O=c1[nH]c(C2=C[C@H](N3CCN(c4ccc(Cl)cc4)CC3)CC2)cc2ncccc12` [Compound 24, (R)-7-(3-(4-(4-chlorophenyl)piperazin-1-yl)cyclopent-1-en-1-yl)-1,6-naphthyridin-5(6H)-one]: 0.5 to 5 nM. Then `Cc1c(C2=C[C@H](N3CCN(c4ccc(C#N)cc4)CC3)CC2)[nH]c(=O)c2cccnc12` [Compound 9, (R)-4-(4-(3-(8-methyl-5-oxo-5,6-dihydro-1,6-naphthyridin-7-yl)cyclopent-2-en-1-yl)piperazin-1-yl)benzonitrile], with 0.5 to 5 nM; and `O=C1OCc2cc(N3CCN([C@H]4C=C(c5cc6ncccc6c(=O)[nH]5)CC4)CC3)ccc21` [Compound 31, (R)-7-(3-(4-(1-oxo-1,3-dihydroisobenzofuran-5-yl)piperazin-1-yl)cyclopent-1-en-1-yl)-1,6-naphthyridin-5(6H)-one], with 0.5 to 5 nM; and `C[C@@H]1CN(c2ccc(C#N)cc2)CCN1C1C=C(c2cc3ncccc3c(=O)[nH]2)CC1` (single isomer, unassigned) [Compound 14], with 0.5 to 5 nM. For the compound `N#Cc1ccc(N2CCN([C@H]3C=C(c4cc5ncccc5c(=O)[nH]4)CC3)CC2=O)cc1` [Compound 13, (R)-4-(2-oxo-4-(3-(5-oxo-5,6-dihydro-1,6-naphthyridin-7-yl)cyclopent-2-en-1-yl)piperazin-1-yl)benzonitrile], the half-inhibitory concentration (IC50) lay in the range of 5.1 to 50 nM. Then `O=c1[nH]c(C2=C[C@H](N3CCN(c4ccc5c(c4)CCC5)CC3)CC2)cc2ncccc12` [Compound 30, (R)-7-(3-(4-(2,3-dihydro-1H-inden-5-yl)piperazin-1-yl)cyclopent-1-en-1-yl)-1,6-naphthyridin-5(6H)-one], with 0.5 to 5 nM.

Take `O=c1[nH]c(C2=C[C@H](N3CCN(c4ccc(F)cc4)CC3)CC2)cc2cccn12` [Compound 55, (R)-3-(3-(4-(4-fluorophenyl)piperazin-1-yl)cyclopent-1-en-1-yl)pyrrolo [1,2-c]pyrimidin-1(2H)-one]: the IC50 lay in the range of 0.5 to 5 nM. Next, `N#Cc1ccc(N2CCN([C@H]3C=C(c4cc5cccn5c(=O)[nH]4)CC3)CC2)cc1` [Compound 54, (R)-4-(4-(3-(1-oxo-1,2-dihydropyrrolo[1,2-c]pyrimidin-3-yl)cyclopent-2-en-1-yl)piperazin-1-yl)benzonitrile]: 0.5 to 5 nM; `N#Cc1ccc(N2CCN([C@H]3C=C(c4cc5ncccc5c(=O)[nH]4)CC3)CC2)nc1` [Compound 34, (R)-6-(4-(3-(5-oxo-5,6-dihydro-1,6-naphthyridin-7-yl)cyclopent-2-en-1-yl)piperazin-1-yl)nicotinonitrile]: 0.5 to 5 nM; `Cc1ccc(N2CCN([C@H]3C=C(c4cc5ncccc5c(=O)[nH]4)CC3)CC2)cc1` [Compound 26, (R)-7-(3-(4-(p-tolyl)piperazin-1-yl)cyclopent-1-en-1-yl)-1,6-naphthyridin-5(6H)-one]: 0.5 to 5 nM.

For `O=C1NCc2cc(N3CCN([C@H]4C=C(c5cc6ncccc6c(=O)[nH]5)CC4)CC3)ccc21` [Compound 32, (R)-7-(3-(4-(1-oxoisoindolin-5-yl)piperazin-1-yl)cyclopent-1-en-1-yl)-1,6-naphthyridin-5(6H)-one], the IC50 was in the range of 0.5 to 5 nM. Then `CNC(=O)c1ccc(N2CCN([C@H]3C=C(c4cc5sccc5c(=O)[nH]4)CC3)CC2)cc1` [Compound 49, (R)—N-methyl-4-(4-(3-(4-oxo-4,5-dihydrothieno[3,2-c]pyridin-6-yl)cyclopent-2-en-1-yl)piperazin-1-yl)benzamide], with 0.5 to 5 nM.
